From patent EP1808178A1, “Composition comprising Astragalus radix extracts for treating prostate cancer” (Golden Biotechnology Corp., priority 2005, dated 2007)

Tested on: human prostate cancer cell lines- LNCaP cells
Assay: In vitro mode adjunctive treatment activity assay with Taxol (MTT colorimetric cell survival)
Format: cell-based
Conditions: PCF1 concentration 0.0 µL/mL, i.e. Taxol (2nM) alone
Method: Utilize in vitro filter mode for human prostate cancer cell lines- LNCaP cells. Where human prostate cancer cell lines - LNCaP cells is being cultured in the culture medium which is supplemented by fetalbovine serum for 24 hours, and process cells by Taxol for 72 hours, and then change the culture medium so as to culture it in a new culture medium by adding assay sample for 72 hours, afterwards evaluate the cell survival rate by MIT colorimetric analysis method.
? The assay analysis of the compositions in accordance with the present invention in effect for suppressing the growth of human prostate cancer cells, wherein it is necessary to compute the cell survival rate for cells in each well of96-well microplate, afterwards evaluate the cancer cells survival rate by MIT colorimetric analysis method.
? MTT colorimetric analysis method: MTT is a kind of tertrazolium salt, with a full name of 3-[4, 5-Dimenthylthialzol-2-yl] 2, 5-diphenyltetrazoliumbromide, which is the yellow dye, capable to be absorbed by live cells and also be reduced to blue color formazan by succinate-tetrazoliumreductase in mitochondrion, which is commonly used for filtering the affection for matters to the growth and proliferation of cells.

## CC(=O)O[C@H]1C(=O)[C@@]2(C)[C@H]([C@H](OC(=O)c3ccccc3)[C@]3(O)C[C@H](OC(=O)[C@H](O)[C@@H](NC(=O)c4ccccc4)c4ccccc4)C(C)=C1C3(C)C)[C@]1(OC(C)=O)CO[C@@H]1C[C@@H]2O [Taxol]
  Cell Survival Rate (%): 56.4%
